Results on seven substances are retold here after paper doi:10.1101/2023.07.11.548539v1, “A side-by-side comparison of peptide-delivered antisense antibiotics employing different nucleotide mimics” (bioRxiv, 2023).

The test system of data set [1] is AcpP::3xFLAG fusion protein. The data set is described as follows: Western blot of intracellular AcpP protein levels. Type of data set: cell-based, Salmonella SL1344 AcpP::3xFLAG. Also on record: key to AcpP protein reduction: -: Effect strength is represented by additional (+) signs.; Effect strength is represented by additional (+) signs.; ++: Effect strength is represented by additional (+) signs.; +++: Effect strength is represented by additional (+) signs. Conditions: for AcpP protein reduction: summary grade, KFF-ASO treatment (Figure 9); for AcpP protein level (in words): 5 µM KFF-ASO conjugate, 30, 60, 120, 240 min for PNA and PMO, 120 min for all other ASOs. Here is the method: Salmonella wild type (WT) and SL1344 AcpP::3xFLAG (chromosmal fusion of full length acpP to 3XFLAG-tag as described earlier([47]); internal strain number JVS-12398) were grown overnight in non-cation adjusted MHB. Bacterial cultures were diluted 1:100, grown to OD600 0.5 and subsequently diluted to approximately 10^6 cfu/ml in MHB. Then, 1.9 ml of each diluted bacterial solution was transferred into 5 ml low-binding tubes, pre-incubated at 37 °C for 10 min and treated with 100 µl of ASOs to adjust a final concentration of 5 µM. Water was added as negative control. The treatment with PNA and PMO was performed with aeration at 37 °C and 220 rpm shaking for 30, 60, 120 and 240 minutes while for all other ASOs, they were treated for 120 min only. Subsequently, the cells were collected by centrifugation at 4 °C and 16,000 ×g for 5 min, resuspended in 1× Protein Loading Buffer (62.6 mM Tris–HCl pH 6.8, 2 % SDS, 0.1 mg/ml bromophenol blue, 15.4 mg/ml DTT, 10 % glycerol) and denatured at 95 °C for 10 min.
For detection of AcpP::3xFLAG protein levels, samples were separated on an 12% SDS-PAA gel and transferred onto a Nitrocellulose membrane via semi dry western blotting. The membrane was probed with an α-FLAG antibody (Sigma; 1:1,000 in 1x TBS-T containing 3% BSA) at 4 °C overnight. After washing in 1x TBS-T, the membrane was incubated with a secondary HRP-conjugated anti-mouse antibody (Thermo Scientific; 1:5,000 in 1x TBS-T containing 1% BSA) at RT for 1 hour. Excessive antibody was removed by repeated wash steps in 1x TBS-T and the membrane was developed by Amersham™ ECL Select™ Western Blotting Detection Reagent Kit (Cytiva).
On the technique in general: In western blotting, separated proteins are transferred to a membrane and probed.

Data set [2] deals with outer membrane of Salmonella. Kind of data set: Outer membrane permeabilization (NPN fluorescence). Conditions: for Outer-membrane permeation: summary grade, ASO conjugated to the carrier peptide; for Outer membrane permeabilization, NPN fluorescence (in words): test compounds 10 µM final, added at 14 min, NPN 10 µM, 5 mM HEPES, 5 mM glucose pH 7.2, CTAB and Polymyxin B positive controls. Also on record: key to Outer-membrane permeation: -: Effect strength is represented by additional (+) signs.; Effect strength is represented by additional (+) signs.; ++: Effect strength is represented by additional (+) signs.; +++: Effect strength is represented by additional (+) signs. It counts as cell-based, Salmonella enterica serovar Typhimurium strain SL1344. The protocol: The experiments were performed by modifying previously published protocols ([48]–[50]). Salmonella (WT SL1344, JVS-1574) were grown overnight in 4 ml MHB medium at 37 °C (with shaking at 220 rpm). Then the culture was diluted 1:100 and grown until OD 0.5 (∼2×10^8 cfu/mL). This culture was harvested and washed two times with 5mM HEPES and further diluted to OD 0.2 in 5 mM HEPES supplemented with 5 mM Glucose (pH 7.2). These cells were then incubated with N-phenylnaphthylamine (NPN) (Sigma, USA) at a final concentration of 10 µM. 190 µl of NPN treated cells were transferred into 96-well back plates with transparent bottom and fluorescence (excitation = 350 nm, emission = 420 nm) was recorded for 60 min (reading was performed every minute) using a Synergy H1 plate reader (Biotek). On the fourteenth minute, 10 µl of the test compounds (10 µM final concentration) was added into the wells. CTAB (Sigma, USA) 200 µM or Polymyxin B (Sigma, USA) 10 µg/ml (final concentration of 0.5 µg/ml) were used as positive controls, while water was used as negative control. The fluorescence of the wells were monitored using the same settings as above. The experiment was performed three times and Figure 10 is based on a single representative experiment.

Oligonucleotides are written 5' to 3', each unit as a sugar letter and its base; * is a phosphorothioate linkage, no mark a phosphodiester; rarer units and linkages stand in square brackets, end groups in braces. Plain capitals give the bases only. d = 2'-deoxy (DNA)

As for “DNA-PTO: 10mer phosphorothioate-modified DNA antisense oligomer, sequence CTCATACTCT, targeting acpP (antisense dC*dT*dC*dA*dT*dA*dC*dT*dC*dT)”, in data set [1], the AcpP protein reduction result is given as “-”. Moreover, in data set [2], the Outer-membrane permeation entry is listed as “-”.
In the case of “LNA: 10mer 2'-4'-locked RNA antisense oligomer, sequence CTCATACTCT, targeting acpP (all LNA, backbone and methylation of C not given here)”, the AcpP protein reduction result in data set [1] is listed as “-”. For the same substance, the Outer-membrane permeation entry in data set [2] is recorded as “-”.
In the case of “PMO: 10mer phosphorodiamidate morpholino antisense oligomer, sequence CTCATACTCT, targeting acpP (all phosphorodiamidate morpholino (PMO))”, in data set [1], the “AcpP protein level (in words)” value was “gradual depletion of AcpP, albeit less pronounced than PNA” and the AcpP protein reduction entry is recorded as “+”. Moreover, in data set [2], the Outer-membrane permeation result is given as “++” and the “Outer membrane permeabilization, NPN fluorescence (in words)” value is given as “this ability is retained”.
For “PNA: 10mer peptide nucleic acid antisense oligomer, sequence CTCATACTCT, targeting acpP (all peptide nucleic acid (PNA))”, in that order: “depletion in AcpP levels can be observed from 60 min post treatment onwards”, “++”, “++” and “this ability is retained”.
For the substance “RNA-F: 10mer 2'-fluorinated RNA antisense oligomer, sequence CTCATACTCT, targeting acpP (all 2'-fluoro, backbone and T or U not given here)”, the AcpP protein reduction entry in data set [1] was “-”. Moreover, the Outer-membrane permeation result in data set [2] is “-”.
Turning to “RNA-MOE: 10mer 2'-methoxyethylated RNA antisense oligomer, sequence CTCATACTCT, targeting acpP (all 2'-MOE, backbone and methylation of C not given here)”, the AcpP protein reduction result in data set [1] is recorded as “-”. For the same substance, in data set [2], the Outer-membrane permeation entry was “-”.
In the case of “RNA-OMe: 10mer 2'-methylated RNA antisense oligomer, sequence CTCATACTCT, targeting acpP (all 2'-O-methyl, backbone and T or U not given here)”, in data set [1], the AcpP protein reduction entry is listed as “-”. Besides, in data set [2], the Outer-membrane permeation entry was “-”.
